PubChem BioAssay AID179 (DTP/NCI, 2004)
pEC50, pIC50: −log10 of the molar value. Active and inactive are the calls of the source.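 How the source made its calls: active means compounds giving half or more protection of infected cells from virus-caused growth loss, again on retest; inactive means the rest.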

System: CEM cells HIV-1 protection, formazan growth assay
Assay: NCI AIDS Antiviral Assay
Conditions: for pIC50: measured here: growth of uninfected CEM cells
Summary of the method: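 Steps: treat uninfected and HIV-1-infected human CEM cells at five drug levels; quantify growth by soluble formazan; retest any compound reaching 50% protection; classify actives from the retest.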

Structure (SMILES)	pEC50	pIC50	outcome
O=C(N1CC2(CN(C(=O)C(F)(F)F)CC3(C1)OCCO3)OCCO2)C(F)(F)F	< 3.70	< 3.70	–
CC(C)N(C(C)C)[PH+]1O[PH+](N(C(C)C)C(C)C)O[PH+](N(C(C)C)C(C)C)O[PH+](N(C(C)C)C(C)C)O[PH+](N(C(C)C)C(C)C)O1.[C-]#[O+].[C-]#[O+].[C-]#[O+].[C-]#[O+].[C-]#[O+].[C-]#[O+].[C-]#[O+].[Cr].[Cr] (stereo unspecified)	< 4.60	< 4.60	–
CN(C)c1nc(N(C)C)nc(N2C(=O)c3ccccc3C2=O)n1	< 4.00	6.41	–
S=C(/C=C1\SC(=Nc2ccccc2)C(=Nc2ccccc2)N1c1ccccc1)Nc1ccccc1	< 3.70	< 3.70	–
O=C(O)/C(Cl)=C(/Cl)C(=O)Nc1cc(Cl)ccc1Cl	–	–	inactive
O=C(C=Nc1ccccc1C(=O)[O-])c1cccs1.O=C(C=Nc1ccccc1C(=O)[O-])c1cccs1.[Co+2]	–	–	inactive
CC12c3c4cccc3Oc3cc(N)cc(c31)Oc1cc(N)cc(c12)O4	< 3.70	5.54	–
Cc1cn(C2CC(O)C(COC(=O)CCCCCCCCCCN=[N+]=[N-])O2)c(=O)[nH]c1=O (stereo unspecified)	< 3.91	4.62	–
CCOC(=O)CC1c2ccc(O)cc2OC(=O)C1c1ccc([N+](=O)[O-])cc1 (stereo unspecified)	< 3.70	4.50	–
O=[N+]([O-])C(=C/C1CCCCC1)/C(=C\C1CCCCC1)[N+](=O)[O-]	< 3.70	5.34	–
O=[N+]([O-])c1ccc(N=Nc2c(NNc3ccc([N+](=O)[O-])cn3)cc(S(=O)(=O)O)c3ccccc23)nc1	–	–	inactive
COc1ccc2c(c1)OC[C@H]1c3cc(O)c(O)cc3O[C@@H]21	–	–	inactive
COc1cc(NC=O)c2c(c1)SCC(=O)N2	< 3.70	3.87	–
Cc1ccnc(NS(=O)(=O)c2ccc(NC3=CC(=O)C(=O)c4ccccc43)cc2)n1	–	–	inactive
CC12CCc3ccccc3C1=NNC(=O)C2 (stereo unspecified)	< 3.77	< 3.77	–
O=CNC12C(=O)NC(=O)C1(C(=O)O)C21CCCCC1 (stereo unspecified)	< 3.70	< 3.70	–
C=C/C=C/NC(=O)OCc1ccccc1	–	–	inactive
O=C(CBr)Nc1ccccc1-c1ccccc1NC(=O)CBr	–	–	inactive
Cc1oc(-c2cccc(F)c2)nc1C(N)=O	< 3.70	< 3.70	–
Cc1ncc(CO)c(CO)c1OCC(O)CN1CCN(C(=O)c2ccccc2)CC1 (stereo unspecified)	< 3.70	< 3.70	–
COc1ccc2c(c1)CCN1CCCc3ccc(OC)cc3C21 (stereo unspecified)	< 3.70	4.29	–
Cc1ccc(C(=O)C2CC3(CCC2(O)c2ccc(C)cc2)CC(=O)Nc2ccccc2C3=O)cc1 (stereo unspecified)	< 3.70	4.05	–
O=C1NC(N2CCOCC2)=N/C1=C\c1cccs1	< 3.70	< 3.70	–

Structure (SMILES)	pEC50	pIC50	outcome
COC(=O)C1(OC(=O)Sc2ccccc2)CCN(C)CC1	< 3.70	4.58	–
CCOCCOCCOCOCCOCCOCC	< 3.70	< 3.70	–
CC(C)(C)OC(=O)NC(Cc1ccc(OC(C)(C)C)cc1)C(=O)N[C@H]1CCC[C@H]1C(=O)NC(Cc1ccccc1)C(=O)N1CCCC1C(N)=O (stereo partly specified)	< 4.00	< 4.00	–
CCC12CCCN(Cc3ccccc3)C1c1c([nH]c3ccccc13)C(C(=O)OC)C2 (stereo unspecified)	< 4.51	< 4.51	–
C=C1C(=O)OC2C1CC1OC2C(C)CCC/C(C)=C\CCC1(C)O (stereo unspecified)	< 3.28	4.77	–
CN(C)c1ccc(C(=C2C=CC(=[N+](C)C)C=C2)c2cc(S(=O)(=O)O)cc3cc(S(=O)(=O)O)ccc23)cc1	< 4.00	< 4.00	–
CC(=O)c1c2c(cc3c1CC1(Cc4cc5c(cc4C1)CCCC5)C3)CCCC2	< 3.70	4.46	–
COC(=O)[C@@H]1CN(C(=O)CCc2ccccc2)C(=O)N1	< 3.70	< 3.70	–
CC(N1CCS(=O)(=O)CC1)P(=O)(O)O (stereo unspecified)	< 3.70	< 3.70	–
O=C1c2ccccc2C(=O)c2nc(-c3ccccc3)c(-c3ccccc3)nc21	–	–	inactive
CCOP(=O)(OCC)/C(C#N)=C/c1ccccc1	< 3.17	< 3.17	–
O=C1C2CN(Cc3ccccc3)CC2C(=O)N1c1ccccc1 (stereo unspecified)	< 3.70	< 3.70	–
COc1cc(/C=C(\C)c2ccc3c(c2)OCO3)cc(OC)c1OC	< 4.38	< 4.38	–
COc1ccc(OC)c2c(Nc3ccc(S(=O)(=O)O)c4cc(S(=O)(=O)O)cc(S(=O)(=O)O)c34)cc(C)nc12	< 3.70	< 3.70	–
COc1cc2c(Cc3cc(OCc4ccccc4)ccc3N)nccc2c(OC)c1OC	–	–	inactive
CCC(C(=O)NNC(=O)c1cc(OC)c(OC)c(OC)c1)c1ccccc1 (stereo unspecified)	< 3.70	3.71	–
COC(=O)C(c1ccc(OC)cc1)N1C(=O)[C@@H](NC(=O)c2ccccc2)[C@H]1[C@@H](C)O (stereo partly specified)	< 3.70	< 3.70	–
Cn1c(-c2ccc(-c3cc(-c4cccs4)c(-c4cccs4)n3C)cc2)cc(-c2cccs2)c1-c1cccs1	< 3.70	< 3.70	–
C=C1CC[N+]2(C)CCCC12 (stereo unspecified)	< 2.94	< 2.94	–
O=[N+]([O-])c1cccc(S(=O)(=O)OCn2ncc3ccc([N+](=O)[O-])cc32)c1	< 3.70	3.82	–
CCOC(=O)/C(C#N)=C\c1ccc(N(CCC(=O)O)CCC(=O)O)c(I)c1	< 3.30	< 3.30	–
O=C(/C=C/c1ccccc1)c1ccc(Cl)cc1Cl	< 5.57	< 5.57	–
